According to PubChem BioAssay (NCI):
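Test compounds were applied to cells in 96-well plates for 48 hours at 5 doses. TGI is the concentration that stops growth completely.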 Where a SMILES comes first, the peptide text is derived from it. [ ]: non-standard residue; d: D form. The star is where a group is joined. X28 = COC1=CC(=O)N(C(=O)[C@@H](O*)C(C)C)[C@H]1Cc1ccccc1; NMeL = CN[C@@H](CC(C)C)C(=O)O; Hexanoyl = CCCCCC(=O)*

What was measured:
Assay in all cases: NCI anticancer screen, dose series, 48 h
A498 renal = test system: A498 renal
CAKI-1 renal = test system: CAKI-1 renal
HOP-92 NSCLC = test system: HOP-92 NSCLC
HS 578T breast = test system: HS 578T breast
K-562 leukemia = test system: K-562 leukemia
M14 melanoma = test system: M14 melanoma
MDA-MB-435 = test system: MDA-MB-435
OVCAR-3 ovarian = test system: OVCAR-3 ovarian
SF-268 CNS = test system: SF-268 CNS
SF-295 CNS = test system: SF-295 CNS
SK-MEL-28 melanoma = test system: SK-MEL-28 melanoma
SN12C renal = test system: SN12C renal
TK-10 renal = test system: TK-10 renal

SMILES | TGI (A498 renal) [µM] | TGI (CAKI-1 renal) [µM] | TGI (HOP-92 NSCLC) [µM] | TGI (HS 578T breast) [µM] | TGI (K-562 leukemia) [µM] | TGI (M14 melanoma) [µM] | TGI (MDA-MB-435) [µM] | TGI (OVCAR-3 ovarian) [µM] | TGI (SF-268 CNS) [µM] | TGI (SF-295 CNS) [µM] | TGI (SK-MEL-28 melanoma) [µM] | TGI (SN12C renal) [µM] | TGI (TK-10 renal) [µM]
OC1(c2ccc(Cl)cc2)c2ccccc2C2=Nc3ccccc3CN21 (configuration not stated) | > 72.9 | > 100 | > 100 | 74.1 | > 100 | > 100 | > 100 | 9.77 | > 100 | > 50.4 | 98.3 | > 79.6 | > 100
c1ccc(COc2nc3ccc(C45CC6CC(CC(C6)C4)C5)cc3[nH]2)cc1 | > 100 | > 100 | 49.8 | > 75.7 | > 100 | 98.4 | > 94 | > 100 | > 100 | > 100 | > 100 | > 100 | > 72.5
N=C(/C=C/c1ccc(-c2cn3cc(/C=C/C(=N)N4CCOCC4)ccc3n2)cc1)N1CCOCC1 | > 100 | > 100 | > 100 | > 100 | > 100 | > 100 | > 100 | > 100 | > 100 | > 100 | > 100 | > 100 | > 100
CCCCCC(=O)N[C@H](C(=O)N[C@H](C(=O)N(C)[C@@H](CC(C)C)C(=O)N1CCC[C@H]1C(=O)N1CCC[C@H]1C(=O)O[C@H](C(=O)N1C(=O)C=C(OC)[C@@H]1Cc1ccccc1)C(C)C)C(C)C)C(C)C (Hexanoyl-VV[NMeL]PP-X28) | > 100 | > 100 | > 100 | > 100 | > 100 | > 48.1 | > 100 | > 100 | > 100 | > 100 | > 100 | > 100 | > 100
Cn1c2ccccc2n2c(=O)c(-c3ccc(O)cc3)nnc12 | > 100 | > 100 | > 100 | > 100 |  | > 100 | > 100 |  | > 100 | > 100 | > 100 | > 100 | > 100
Cc1cccc(Nc2cn(CCOc3ccccc3)c(=O)[nH]c2=O)c1 | > 100 | > 100 | 84 | > 100 | > 100 | > 100 | > 100 | 52.8 | > 100 | > 100 | > 100 | 81.7 | 
COc1ccc(OC)c2c1C[C@@H]1C(C#N)N3[C@H](Cc4c(OC)ccc(OC)c4[C@@H]3C)C(=O)N1[C@H]2C (some centres not stated) | 42.1 | 30.3 | 5.37 | > 100 | 7.26 | 8.54 | 14 | 5.2 | 6.71 | 35.7 | 10.1 | > 50.2 | 15.2
CC(C)C[C@H](NC(=O)[C@@H](Cc1cccc2ccccc12)NC(=O)N1CCOCC1)B(O)O | 18.1 | 33.2 | 8.55 | > 25.6 | 46.6 | 10.8 | 3.79 | 6.69 | 15.1 | 43.8 | 6.92 | 20.4 | 25.4
CCCCN(CCCC)CC(=O)c1ccc2cc(Cl)c3ccccc3c2c1 | 46.9 | 78.6 | > 100 | > 100 | > 100 | > 100 | > 100 | > 100 | 42.1 | > 100 |  | > 100 | > 100
CCN(CC)P1(=S)Oc2ccc3ccccc3c2-c2c(ccc3ccccc23)O1 | > 100 | > 100 | > 100 | > 100 | > 100 | > 100 | > 100 | > 100 |  | > 100 | > 100 | > 100 | > 100
COC(=O)c1c(C)nc(C)c(N=O)c1-c1ccccc1C(F)(F)F | > 100 | 23 | 34.8 | 44.8 | > 100 | 47.1 | 56.3 | 31.3 | 30.8 | > 100 | 28.4 | 38.6 | 30
CCOC(=O)C1(C(=O)OCC)C[C@H]2CON=C2[C@@H]1c1ccc(C(F)(F)F)cc1 | 99.3 | > 100 | > 100 | > 100 | > 100 | > 100 | > 100 | > 100 | > 100 | > 100 | > 100 | > 100 | > 100
CCC(C#N)N(Cc1cccc(CN(C(C)=O)C(C#N)CC)c1)C(C)=O (configuration not stated) | > 100 | > 100 | > 100 | > 100 | > 100 | > 100 | > 100 | > 100 | > 100 | > 100 |  | > 100 | > 100
COc1ccccc1NC(=S)N/N=C(/c1ccccc1)c1ccccn1 | 12.5 | 10.2 | 15.6 | 53.9 |  | 9.52 | 20 | 16.5 | 20.4 | 7.17 | 23.9 | 16.7 | 18.3
CCOC(=O)c1cc(-c2ccc(OC)c(OC)c2)cn1C | > 10 | > 10 | > 10 | > 10 | > 10 | > 10 | > 10 | > 10 | > 10 | > 10 | > 10 | > 10 | > 10
C=C(C)C1CC2=C(C(=O)OC)C=C(O2)C(C(=C)C)[C@@H]2OC(=O)/C(=C\C1O)[C@H]2N(C)C (some centres not stated) | 31.3 | 21.2 | 20.2 | 44.2 | > 100 | 29.7 | 25 | 25.7 | 32.9 | 32 | 27.8 | 28.5 | 15.7
CCc1nnc2sc(-c3ccc(-c4ccc(Cl)cc4Cl)o3)nn12 | > 100 | > 100 | > 100 | > 100 | > 100 | > 100 | > 100 | > 100 | > 100 | > 100 | > 100 | > 100 | > 100

SMILES | TGI (A498 renal) [µM] | TGI (CAKI-1 renal) [µM] | TGI (HOP-92 NSCLC) [µM] | TGI (HS 578T breast) [µM] | TGI (K-562 leukemia) [µM] | TGI (M14 melanoma) [µM] | TGI (MDA-MB-435) [µM] | TGI (OVCAR-3 ovarian) [µM] | TGI (SF-268 CNS) [µM] | TGI (SF-295 CNS) [µM] | TGI (SK-MEL-28 melanoma) [µM] | TGI (SN12C renal) [µM] | TGI (TK-10 renal) [µM]
CCOC(=O)c1ccc(N=C/C=C(\Nc2ccc(C(=O)OCC)cc2)c2ccc3ccccc3c2)cc1 | > 100 | 83.8 | > 100 | 96.3 | 56.7 | 59 | 33.3 | 83.5 | > 100 | > 100 | 61.1 | 58.6 | 53.4
COC(=O)c1ccc(/C=C/C2=CC(=O)C=CC2=O)cc1 | 38.6 | 30.5 | 32.7 | > 100 | 8.55 | > 67.2 | 44 | 38.4 | 42.9 | 78.2 | 50.8 | 58 | 44.4
O=[N+]([O-])c1ccccc1S(=O)(=O)N1CCCc2cc(Cl)ccc21 | 76.1 | > 100 | > 100 | > 100 | > 75.2 | > 100 | 41.7 | > 100 | > 100 | > 100 | > 100 | > 100 | > 100
CCOC(=O)c1c(OCC)[nH]c(=O)c(C(c2ccc(F)cc2)c2c(O)c(C(=O)OCC)c(OCC)[nH]c2=O)c1O | 26.2 | 42.4 | 18.1 | > 100 | 50.8 | 63.3 | 37.7 | 39.7 | 33.6 | 49.8 | 27 | 30.2 | 67.7
CCC1=C(C)C2=NC1=CC1=NC(=C(CC)/C1=C/O)C=C1N=C3C(=C1C)C(=O)C(C(=O)OC)C3=C1NC(=C2)C(C)C1CCC(=O)OC (configuration not stated) | > 100 | > 100 | > 100 | > 100 | > 100 | > 100 | > 100 | > 100 | > 100 | > 100 | > 100 | > 100 | > 100
Nc1nc(Cl)cc(NCC2(CO)CC(CCCCc3ccccc3)C2)n1 (configuration not stated) | > 100 | > 100 | > 100 | > 100 | > 100 | > 100 | > 100 | > 100 | > 100 | > 100 | > 100 | > 100 | > 100
NC12c3c4cccc3Oc3cccc(c31)Oc1cccc(c12)O4 | > 50 | > 50 | > 50 | > 50 | > 50 | > 50 | > 50 | > 50 | > 50 | > 50 | > 50 | > 50 | 
O=C(O)CCCN1CCCCC1 | > 100 | > 100 | > 100 | > 100 | > 100 | > 100 | > 100 | > 100 | > 100 | > 100 | > 100 | > 100 | > 100
CC(C)(C)c1cc(C2COC(=O)COCCOCC(=O)OCCOCCO2)cc(C(C)(C)C)c1O (configuration not stated) | > 100 | 33.4 | 59.4 | 77.7 | > 100 | > 100 | > 100 | > 100 | > 90.7 | 53.7 | > 100 | 44.6 | 32.4
COc1ccc2cc(C(=O)NCCc3ccccc3)ccc2c1OC | > 100 | > 100 | > 100 | > 100 | > 100 | > 100 | > 100 | > 100 | > 100 | > 100 | > 100 | > 100 | 
Cc1ccc(S(=O)(=O)OC2CN3CCC2CC3)cc1 (configuration not stated) | > 100 | > 100 | > 100 | > 100 | > 100 | > 100 | > 100 | > 100 | > 100 | > 100 | > 100 | > 100 | > 100
O=C(/C=C1\N=C(c2ccccc2)N(c2ccc3c(c2)Sc2cc(N4C(=O)/C(=C/C(=O)/C=C/c5ccccc5)N=C4c4ccccc4)ccc2N3)C1=O)/C=C/c1ccccc1 | 67.8 | > 100 | > 100 | 96.3 | > 100 | > 100 | 44.4 | 43.6 | > 100 | 57 | > 100 | > 100 | > 100
CCOc1ccc(N=NC2C(=O)N(C(=O)CC(=O)Nc3ccc(Cl)cc3)N=C2C)cc1 (configuration not stated) | > 100 | > 100 | > 100 | > 100 |  | > 100 | > 100 | > 100 | > 100 | > 100 | > 100 | > 100 | > 100
COC(=O)c1nc2c(C)c(O)c(O)c([C@H](C)CCC=C(C)C)c2o1 | 39 | 50.9 | 66.7 | 87.4 | > 100 | > 100 | > 100 | > 100 | > 100 | 47 | > 100 |  | > 100
CC(C)(C)[C@@H]1NC(=O)CN1C(=O)OCc1ccccc1 | > 100 |  | > 100 | > 100 | > 100 | > 100 | > 100 |  | > 100 | > 100 | > 100 | > 100 | > 100
Brc1ccc(-c2ccc(-c3ccc(Br)s3)s2)s1 | > 100 |  | > 100 | > 100 | > 100 | > 100 | > 100 | > 100 | > 100 | > 100 | > 100 | > 100 | > 100
CC(=O)c1nc2ccccc2n1CC(=O)c1ccc([N+](=O)[O-])cc1 | > 100 | 53.7 |  | 28.9 | > 100 | > 100 | > 100 | 35.4 | > 100 | 36.1 | > 100 | > 100 | > 100
